According to the supplement of paper PMC10307832:

Legend:
Assay in all cases: relative viability (nuclei count vs DMSO), 5 days (fraction); higher = more cells survive
NCI-H1563 = tested on: NCI-H1563
Summary of the method: (§1)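 One day after seeding in 1536-well plates, lung cancer cell lines were dosed by pin tool. Dosing was either single-drug or a fixed anchor-drug dose plus five library-drug doses (not always all listed) in √10 steps. After 5 days, nuclei were stained in one fix-and-stain step and counted on 4× images, and relative viability is the nuclei count of treated wells over that of vehicle wells, given as the median of duplicate plates.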

NCI-H1648 = tested on: NCI-H1648
Summary of the method: as §1

NCI-H2342 = tested on: NCI-H2342
Summary of the method: as §1

NCI-H522 = tested on: NCI-H522
Summary of the method: as §1

SW 900 = tested on: SW 900
Summary of the method: as §1

IA-LM = tested on: IA-LM
Summary of the method: as §1

A549 = tested on: A549
Summary of the method: as §1

NCI-H1703 = tested on: NCI-H1703
Summary of the method: as §1

O=C(O)CCCCC(CCSCc1ccccc1)SCc1ccccc1 (configuration not stated) [CPI-613] + Nc1nc2[nH]cc(CCc3ccc(C(=O)N[C@@H](CCC(=O)O)C(=O)O)cc3)c2c(=O)[nH]1 [Pemetrexed] (partner 0.2 µM)
relative viability (NCI-H1563; first compound 5 µM): 0.732 | relative viability (NCI-H1563; first compound 15.81 µM): 0.713 | relative viability (NCI-H1563; first compound 50 µM): 0.727 | relative viability (NCI-H1563; first compound 158.11 µM): 0.631 | relative viability (NCI-H1563; first compound 500 µM): 0.394 | relative viability (NCI-H1648; first compound 5 µM): 0.639 | relative viability (NCI-H1648; first compound 15.81 µM): 0.623 | relative viability (NCI-H1648; first compound 50 µM): 0.823 | relative viability (NCI-H1648; first compound 158.11 µM): 0.527 | relative viability (NCI-H1648; first compound 500 µM): 0.139 | relative viability (NCI-H2342; first compound 5 µM): 0.743 | relative viability (NCI-H2342; first compound 15.81 µM): 0.761 | relative viability (NCI-H2342; first compound 50 µM): 0.804 | relative viability (NCI-H2342; first compound 158.11 µM): 0.744 | relative viability (NCI-H2342; first compound 500 µM): 0.785 | relative viability (NCI-H522; first compound 5 µM): 1.04 | relative viability (NCI-H522; first compound 15.81 µM): 1.06 | relative viability (NCI-H522; first compound 50 µM): 1.3 | relative viability (NCI-H522; first compound 158.11 µM): 0.857 | relative viability (NCI-H522; first compound 500 µM): 0.473 | relative viability (SW 900; first compound 5 µM): 0.451 | relative viability (SW 900; first compound 50 µM): 0.47 | relative viability (SW 900; first compound 158.11 µM): 0.372 | relative viability (SW 900; first compound 500 µM): 0.0088

O=C(O)CCCCC(CCSCc1ccccc1)SCc1ccccc1 (configuration not stated) [CPI-613] + O=C(CCCCCCC(=O)Nc1ccccc1)NO [Vorinostat] (partner 1 µM)
relative viability (IA-LM; first compound 5 µM): 0.876 | relative viability (IA-LM; first compound 15.81 µM): 0.869 | relative viability (IA-LM; first compound 50 µM): 0.685 | relative viability (IA-LM; first compound 500 µM): 0.937 | relative viability (NCI-H1648; first compound 5 µM): 0.527 | relative viability (NCI-H1648; first compound 15.81 µM): 0.336 | relative viability (NCI-H1648; first compound 50 µM): 0.422 | relative viability (NCI-H1648; first compound 158.11 µM): 0.142 | relative viability (NCI-H1648; first compound 500 µM): 0.0754 | relative viability (NCI-H2342; first compound 5 µM): 0.648 | relative viability (NCI-H2342; first compound 15.81 µM): 0.629 | relative viability (NCI-H2342; first compound 50 µM): 0.721 | relative viability (NCI-H2342; first compound 158.11 µM): 0.763 | relative viability (NCI-H2342; first compound 500 µM): 0.939 | relative viability (NCI-H522; first compound 5 µM): 0.841 | relative viability (NCI-H522; first compound 15.81 µM): 0.812 | relative viability (NCI-H522; first compound 50 µM): 0.833 | relative viability (NCI-H522; first compound 158.11 µM): 0.741 | relative viability (NCI-H522; first compound 500 µM): 0.244 | relative viability (SW 900; first compound 5 µM): 0.512 | relative viability (SW 900; first compound 50 µM): 0.555 | relative viability (SW 900; first compound 158.11 µM): 0.316 | relative viability (SW 900; first compound 500 µM): 0.0227

O=c1[nH]c2ccccc2n1C1CCN(CCCC(c2ccc(F)cc2)c2ccc(F)cc2)CC1 [Pimozide] + Nc1ncn([C@H]2C[C@H](O)[C@@H](CO)O2)c(=O)n1 [Decitabine] (partner 2 µM)
relative viability (A549; first compound 0.08 µM): 0.307 | relative viability (A549; first compound 0.253 µM): 0.208 | relative viability (A549; first compound 0.8 µM): 0.211 | relative viability (A549; first compound 2.53 µM): 0.312 | relative viability (A549; first compound 8 µM): 0.199 | relative viability (NCI-H1648; first compound 0.08 µM): 0.392 | relative viability (NCI-H1648; first compound 0.8 µM): 0.466 | relative viability (NCI-H1648; first compound 2.53 µM): 0.55 | relative viability (NCI-H1648; first compound 8 µM): 0.517 | relative viability (NCI-H2342; first compound 0.08 µM): 0.698 | relative viability (NCI-H2342; first compound 0.253 µM): 0.74 | relative viability (NCI-H2342; first compound 0.8 µM): 0.715 | relative viability (NCI-H2342; first compound 2.53 µM): 0.746 | relative viability (NCI-H2342; first compound 8 µM): 0.725 | relative viability (NCI-H522; first compound 0.08 µM): 0.679 | relative viability (NCI-H522; first compound 0.253 µM): 0.693 | relative viability (NCI-H522; first compound 0.8 µM): 0.615 | relative viability (NCI-H522; first compound 2.53 µM): 0.698 | relative viability (NCI-H522; first compound 8 µM): 0.771 | relative viability (SW 900; first compound 0.08 µM): 0.451 | relative viability (SW 900; first compound 0.253 µM): 0.415 | relative viability (SW 900; first compound 2.53 µM): 0.548 | relative viability (SW 900; first compound 8 µM): 0.472

Cc1cnc(-c2cnc(NCCNc3ccc(C#N)cn3)nc2-c2ccc(Cl)cc2Cl)[nH]1 + NC(=O)Nc1cc(-c2cccc(F)c2)sc1C(=O)N[C@H]1CCCNC1 [AZD7762] (partner 0.2 µM)
relative viability (NCI-H1648; first compound 0.08 µM): 0.542 | relative viability (NCI-H1648; first compound 0.253 µM): 0.579 | relative viability (NCI-H1648; first compound 0.8 µM): 0.643 | relative viability (NCI-H1648; first compound 2.53 µM): 0.624 | relative viability (NCI-H1703; first compound 0.08 µM): 0.14 | relative viability (NCI-H1703; first compound 0.253 µM): 0.128 | relative viability (NCI-H1703; first compound 2.53 µM): 0.13 | relative viability (NCI-H2342; first compound 0.08 µM): 0.516 | relative viability (NCI-H2342; first compound 0.253 µM): 0.473 | relative viability (NCI-H2342; first compound 0.8 µM): 0.484 | relative viability (NCI-H2342; first compound 2.53 µM): 0.46 | relative viability (NCI-H522; first compound 0.08 µM): 0.868 | relative viability (NCI-H522; first compound 0.253 µM): 0.798 | relative viability (NCI-H522; first compound 0.8 µM): 0.768 | relative viability (NCI-H522; first compound 2.53 µM): 0.789 | relative viability (SW 900; first compound 0.08 µM): 0.736 | relative viability (SW 900; first compound 0.253 µM): 0.548 | relative viability (SW 900; first compound 0.8 µM): 0.507 | relative viability (SW 900; first compound 2.53 µM): 0.452

O=c1[nH]c2ccccc2n1C1CCN(CCCC(c2ccc(F)cc2)c2ccc(F)cc2)CC1 [Pimozide] + NC(=O)Nc1cc(-c2cccc(F)c2)sc1C(=O)N[C@H]1CCCNC1 [AZD7762] (partner 0.2 µM)
relative viability (NCI-H1648; first compound 0.08 µM): 0.568 | relative viability (NCI-H1648; first compound 0.8 µM): 0.52 | relative viability (NCI-H1648; first compound 2.53 µM): 0.584 | relative viability (NCI-H1648; first compound 8 µM): 0.698 | relative viability (NCI-H1703; first compound 0.08 µM): 0.129 | relative viability (NCI-H1703; first compound 0.253 µM): 0.109 | relative viability (NCI-H1703; first compound 0.8 µM): 0.0889 | relative viability (NCI-H1703; first compound 2.53 µM): 0.1 | relative viability (NCI-H1703; first compound 8 µM): 0.122 | relative viability (NCI-H2342; first compound 0.08 µM): 0.524 | relative viability (NCI-H2342; first compound 0.253 µM): 0.526 | relative viability (NCI-H2342; first compound 0.8 µM): 0.465 | relative viability (NCI-H2342; first compound 2.53 µM): 0.48 | relative viability (NCI-H2342; first compound 8 µM): 0.492 | relative viability (NCI-H522; first compound 0.08 µM): 0.963 | relative viability (NCI-H522; first compound 0.253 µM): 0.835 | relative viability (NCI-H522; first compound 0.8 µM): 0.857 | relative viability (NCI-H522; first compound 2.53 µM): 0.77 | relative viability (NCI-H522; first compound 8 µM): 0.872 | relative viability (SW 900; first compound 0.08 µM): 0.524 | relative viability (SW 900; first compound 0.253 µM): 0.599 | relative viability (SW 900; first compound 2.53 µM): 0.591 | relative viability (SW 900; first compound 8 µM): 0.478
